The record followed here is publication PMC12424289, “Programmable Nanostructure Assembly of a Paclitaxel Derivative Enables Tunable Anticancer Therapy via Hydrogen Bond Engineering” (ACS Nano, 2025).

One data set has as its system Balb/c mice. The data set is described as follows: Maximum tolerated dose / survival in mice. It counts as in vivo, mouse. Particulars: iv, PTP 100 mg·kg^–1, 14 days.
The nature of data set [1]: Solid-state storage stability of PTP. It counts as physicochemical. Particulars: stored at −20 °C for 6 months; initial purity 98.5%. The method, then:
For solid-state stability, 5.0 mg PTP was sealed in glass bottles and stored under controlled conditions in stability chambers (MMM Climacell-E, Germany). The samples were stored at 40 ± 2 °C and 75 ± 5% relative humidity, and 25 ± 2 °C and 60 ± 5% RH. Additional samples were stored at 4 °C and −20 °C in a refrigerator (BCD-610W, Siemens, Germany). At scheduled intervals, triplicate samples from each condition were analyzed for purity by HPLC.

Data set [2] concerns human colon HCT116-Luc cells. Description: CCK8 antiproliferation assay, HCT116-Luc. Particulars: 48 h treatment. It counts as cell-based. Here is the method:
(§1) The mouse breast cancer cell line 4T1 and the human ovarian cancer cell line SKOV3 were cultured in RPMI 1640 medium supplemented with 10% fetal bovine serum, 100 units·mL^–1 penicillin, and 100 μg·mL^–1 streptomycin. The human lung cancer cell line A549 and the luciferase-expressing human colorectal carcinoma cell line HCT116-Luc were cultured in high-glucose DMEM medium supplemented with 10% fetal bovine serum, 100 units·mL^–1 penicillin, and 100 μg·mL^–1 streptomycin. All cell lines were maintained at 37 °C in a Steri-Cycle 371 incubator (Thermo Scientific, USA) with a humidified atmosphere of 5% CO2. Only cells between passages 5 and 15 were used for cell-based experiments.
(§2) The antiproliferative activity of PTP was evaluated using the Cell Counting Kit-8 (CCK8) assay. PTX solution served as a positive control. Cell suspensions were prepared at a density of 3 × 10^4 cells·mL^–1 and seeded in 96-well plates at a volume of 100 μL per well. The plates were incubated for 24 h to allow cell attachment and growth. Subsequently, the culture media were replaced with fresh media containing varying concentrations of PTX or PTP solutions (100 μL per well), and the cells were incubated for an additional 48 h (n = 3). Control wells received fresh culture media alone (n = 3). […] Finally, the absorbance was measured at 450 nm using a microplate reader (Synergy H1, BioTek, USA). […]
A general note: Formazan colour is commonly taken as a measure of viable cells.

The nature of data set [3]: Degradation of PTP assemblies in aqueous solution (HPLC). The note with it: 37 °C. It counts as physicochemical. The method, then: PTP, PTP@PEG, and PTP@HA (200 μL, 0.1 mg·mL^–1) solutions were sealed in ampules and incubated at 37 °C with agitation at 100 rpm. Samples were collected in triplicate at scheduled intervals, treated with acetonitrile, vortexed for 1 min, and analyzed using HPLC. Degradation rate constants (k) were calculated by plotting the natural logarithm of the concentration ratio (ln c/c0) versus time, with the slopes of the linear regression plots representing the rate constants.

In a further data set the test system is human lung A549 cells. Description: CCK8 antiproliferation assay, A549. It counts as cell-based. The note with it: A549, 48 h treatment. The method, then:
as §1, §2

Data set [4] is described as follows: In vitro PTP release (transwell, PBS). It counts as physicochemical. Particulars: over 12 h, 5.0 mg·mL^–1 PTP. Here is the method:
The in vitro drug release from the PTP assemblies and PTP@HA was assessed in 1 × PBS (pH 7.4). A 0.1 mL dispersion of PTP (5.0 mg·mL^–1) or PTP@HA (equivalent to 5.0 mg·mL^–1 PTP and 20.0 mg·mL^–1 HA) in saline was added to the upper chamber of a 24-well transwell plate (#3413, Corning, USA) equipped with a 0.4 μm polycarbonate membrane (n = 3). The lower chamber contained 0.6 mL 1 × PBS. The setup was maintained at 37 °C with shaking at 100 rpm. At specified time intervals, the PBS in the lower chamber was replaced with fresh PBS. Each collected sample was mixed with 600 μL acetonitrile and vortexed for 1 min. PTP release and PTX degradation products were quantified by HPLC.

In a further data set the test system is tubulin. Description: Isothermal titration calorimetry with tubulin. The note with it: tubulin 180 μM titrated into 25 μM compound. It counts as binding. Here is the method:
ITC experiments were performed using a Nano-ITC (TA Instruments, USA) with all samples degassed for 8 min prior to measurement. Experiments were conducted under stirring at 350 rpm. To account for background signals, control experiments were conducted and subtracted from the test data. The resulting heat values were analyzed using an independent model to extract thermodynamic parameters. For tubulin binding studies, solutions were prepared in PEM buffer containing 5% (v/v) DMSO. In each experiment, 400 μL of the […] was loaded into the sample cell, and 400 μL of PEM buffer with 5% (v/v) DMSO was placed in the reference cell. Tubulin solution (180 μM) was titrated into the sample cell in 25 injections of 2 μL each at 4 °C. A control titration of tubulin into PEM buffer (5% DMSO) was performed to account for dilution effects. To assess interactions between PTP and excipients, PTP dispersions (25 μM) were loaded into the sample cell, and water was used in the reference cell. PEG400 solution (6.0 mg·mL^–1) was titrated into a 2.0 mg·mL^–1 PTP dispersion, and HA (2.7 mg·mL^–1) into a 1.0 mg·mL^–1 PTP dispersion. Both titrations were performed at 25 °C with 25 injections of 2 μL each. Control experiments were performed by titrating PEG400 or HA into water to correct for nonspecific heat effects.

The test system of a further data set is mouse breast 4T1 cells. Description: CCK8 antiproliferation assay, 4T1. Particulars: 4T1, 48 h treatment. It counts as cell-based. Here is the method:
as §1, §2

The nature of data set [5]: Appearance on dissolving/dispersing in water or excipient solution. It counts as physicochemical. Particulars: 5.0 mg·mL^–1 drug; with 260.0 mg·mL^–1 PEG400 or 20.0 mg·mL^–1 HA where named. The method, then:
PTP self-assemblies were prepared by adding 5.0 mg of PTP to 1.0 mL of a water, followed by vortexing for 1 min. For PTP@PEG coassemblies, 260.0 mg of PEG400 was mixed with 1.0 mL of the chosen water-based solution. This PEG400 solution was then added to 5.0 mg of PTP powder, and the resulting mixture was vortexed for 1 min. PTP@HA coassemblies were prepared by first dispersing 20.0 mg of HA in 1.0 mL of the selected water-based solution. Following this step, the resulting HA solution was added to 5.0 mg of PTP powder. The final mixture was vortexed for 1 min. To prepare the PTX@PEG control system, 1.3 g of PEG400 was mixed with 5.0 mL of water. Then, 25.0 mg of PTX was added to the solution, and the mixture was vortexed for 1 min. Similarly, the PTX@HA control system was prepared by dispersing 100.0 mg of HA in 5.0 mL of water. Subsequently, 25.0 mg of PTX was added, and the mixture was vortexed for 1 min.

As a reminder, the IC50 is the midpoint of a concentration-inhibition curve. Take `CC(=O)O[C@H]1C(=O)[C@@]2(C)[C@H]([C@H](OC(=O)c3ccccc3)[C@]3(O)C[C@H](OC(=O)[C@H](OC(=O)CCP(=O)(O)O)[C@@H](NC(=O)c4ccccc4)c4ccccc4)C(C)=C1C3(C)C)[C@]1(OC(C)=O)CO[C@@H]1C[C@@H]2O` [PTP, PTX-2’–OOC-P]: the fatalities result in the data set on Balb/c mice is listed as “No fatalities”. For the same compound, in data set [1], the purity after storage is on record as 98.1%. Further, the IC50 is 0.0125 µM in data set [2], 0.0132 µM in the data set with human lung A549 cells and 0.0824 µM in the data set on mouse breast 4T1 cells. Moreover, the “degradation rate constant (k)” value is 2.3 × 10^–2 day^–1 in data set [3] (0.1 mg·mL^–1 in 5% glucose (5% G)), 1.3 day^–1 in [3] (0.1 mg·mL^–1 in phosphate buffer saline (PBS)), 3.2 × 10^–2 day^–1 in data set [3] (0.1 mg·mL^–1 in saline) and 8.0 × 10^–2 day^–1 in data set [3] (0.1 mg·mL^–1 in water). Also, the “total release of PTP” value in data set [4] (PBS pH 7.4, 37 °C) was determined as 40.6%. This compound showed an average release rate in data set [4] (PBS pH 7.4, 37 °C (data not shown)) of 17.5 μg·h^–1. Also, the “molar ratio of tubulin to compound” value in the data set with tubulin (ITC) came out at 1.6. Besides, the “Gibbs free energy change (ΔG)” value in the data set on tubulin (5% DMSO, 4 °C) was −26.8 kJ·mol^–1. In addition, the “appearance of the system” value in data set [5] is listed as “transparent solution”.
